Experimental data: US20080293727A1, “Novel sulfonamide inhibitors of aspartyl protease” (priority 1992, published 2008)

target: HIV-1 protease (Human immunodeficiency virus type 1 group M subtype B, UniProt P04585); test: Inhibition constants against HIV-1 protease (method of Pennington et al.); assay type: biochemical; conditions: HIV-1 protease; read-out: Ki value
Description: We measured the inhibition constants of the compounds listed in Table VII against HIV-1 protease using the above-cited method of Pennington et al.

Going from `COc1ccc(S(=O)(=O)N(CC(C)C)C[C@@H](O)[C@H](Cc2ccccc2)NC(=O)O[C@H]2CCOC2)cc1` [Compound 100, N-((2 syn,3S)-2-Hydroxy-4-phenyl-3-((S)-tetrahydrofuran-3-yloxycarbonylamino)-butyl)-N-isobutyl-4-methoxy-benzenesulfonamide] to `COc1ccc(S(=O)(=O)N(CC(C)C)C[C@@H](O)[C@H](Cc2ccccc2)NC(=O)O[C@H]2CCOC2)cc1OC` [Compound 123], the Ki rises from 0.16 nM to 10 nM (62-fold). The first binds more tightly here.

First: CC(=O)Nc1ccc(S(=O)(=O)N(C)C[C@@H](O)[C@H](Cc2ccccc2)NC(=O)O[C@H]2CCOC2)cc1 [Compound 101]
Second: C=C(C)CN(C[C@@H](O)[C@H](Cc1ccccc1)NC(=O)O[C@H]1CCOC1)S(=O)(=O)c1ccc(NC(C)=O)cc1 [Compound 134]
The Ki of the first is 30-fold higher: 250 nM for the first, 8.4 nM for the second.

Compared with `COC(=O)N[C@@H](Cc1ccccc1)[C@H](O)CN(CC(C)C)S(=O)(=O)c1ccc(NC(C)=O)cc1` [Compound 102], `CCOC(=O)N[C@@H](Cc1ccccc1)[C@H](O)CN(CC(C)C)S(=O)(=O)c1ccc(NC(C)=O)cc1` [Compound 120] is 3-fold lower in Ki: 33 nM for the first, 11 nM for the second. The second binds more tightly here.

First: COC(=O)N[C@@H](Cc1ccccc1)[C@H](O)CN(CC(C)C)S(=O)(=O)c1ccc(Cl)c(Cl)c1 [Compound 103]
Second: CCOC(=O)N[C@@H](Cc1ccccc1)[C@H](O)CN(CC(C)C)S(=O)(=O)c1ccc(Cl)c(Cl)c1 [Compound 119]
The Ki of the first is 2.5-fold higher: 4.5 nM for the first, 1.8 nM for the second. The second binds more tightly here.

First: COC(=O)N[C@@H](Cc1ccccc1)[C@H](O)CN(CC(C)C)S(=O)(=O)c1ccc(F)cc1 [Compound 104]
Second: CCOC(=O)N[C@@H](Cc1ccccc1)[C@H](O)CN(CC(C)C)S(=O)(=O)c1ccc(F)cc1 [Compound 121]
The Ki of the first is 2.8-fold higher: 5.5 nM for the first, 2 nM for the second.

Compared with `C=C(C)COC(=O)N[C@@H](Cc1ccccc1)[C@H](O)CN(CC(C)C)S(=O)(=O)c1ccc(NC(C)=O)cc1` [Compound 105], `C=C(C)COC(=O)N[C@@H](Cc1ccccc1)[C@H](O)CN(CC(C)C)S(=O)(=O)c1ccc(F)cc1` [Compound 107] is 5.4-fold lower in Ki: 7.5 nM for the first, 1.4 nM for the second. The second binds more tightly here.

`C=C(C)COC(=O)N[C@@H](Cc1ccccc1)[C@H](O)CN(CC(C)C)S(=O)(=O)c1ccc(Cl)c(Cl)c1` [Compound 106] and `C=CCOC(=O)N[C@@H](Cc1ccccc1)[C@H](O)CN(CC(C)C)S(=O)(=O)c1ccc(F)cc1` [Compound 122] are within 1.5-fold of each other in Ki: 1.4 nM for the first, 1.2 nM for the second.

Compared with `CC(C)CN(C[C@@H](O)[C@H](Cc1ccccc1)NC(=O)OC[C@@H]1COC(=O)N1)S(=O)(=O)c1ccc(F)cc1` [Compound 109, 4-Fluoro-N-(2-(syn)-hydroxy-3-((2-oxazolidon-(S)-4-yl)-methoxycarbonylamino)-4-(S)-phenyl-butyl)-N-isobutyl-benzenesulfonamide], `CC(=O)Nc1ccc(S(=O)(=O)N(CC(C)C)CC(O)C(Cc2ccccc2)NC(=O)OCC2COC(=O)N2)cc1` (centres unmarked) [Compound 110] is 4.7-fold higher in Ki: 6 nM for the first, 28 nM for the second.

Going from `O=C(N[C@@H](Cc1ccccc1)[C@H](O)CN(CC1CCCC1)S(=O)(=O)c1ccc(F)cc1)OCc1cccnc1` [Compound 111] to `O=C(N[C@@H](Cc1ccccc1)[C@H](O)CN(CC1CCCC1)S(=O)(=O)c1ccc(Cl)cc1)OCc1cccnc1` [Compound 118], the Ki falls from 0.3 nM to under 0.1 nM.

Compared with `CC(C)CN(C[C@@H](O)[C@H](Cc1ccccc1)NC(=O)O[C@H]1CCOC1)S(=O)(=O)c1cccc(S(N)(=O)=O)c1` [Compound 112, Benzene-1,3-disulfonic acid 1-amide 3-((2 syn,3S)-2-hydroxy-4-phenyl-3-(3-(S)-tetrahydrofuran-3-yloxycarbonylamino)-butyl)-isobutyl-amide], `CC(C)CN(C[C@@H](O)[C@H](Cc1ccccc1)NC(=O)O[C@H]1CCOC1)S(=O)(=O)c1cccc(Cl)c1` [Compound 138, 3-Chloro-N-((2 syn,3S)-2-hydroxy-4-phenyl-3-((S)-tetrahydrofuran-3-yloxycarbonylamino)-butyl)-N-isobutyl-benzenesulfonamide] is 2.9-fold lower in Ki: 4 nM for the first, 1.4 nM for the second.

First: CC(C)CN(C[C@@H](O)[C@H](Cc1ccccc1)NC(=O)O[C@H]1CCOC1)S(=O)(=O)c1ccoc1 [Compound 113]
Second: CC(C)CN(C[C@@H](O)[C@H](Cc1ccccc1)NC(=O)O[C@H]1CCOC1)S(=O)(=O)c1ccc(F)c(F)c1 [Compound 124]
The Ki of the first is 2.7-fold higher: 3 nM for the first, 1.1 nM for the second. The second binds more tightly here.

`C=CCOC(=O)N[C@@H](Cc1ccccc1)[C@H](O)CN(CC1CCCC1)S(=O)(=O)c1ccc(F)cc1` [Compound 114, N-((3-Allyloxycarbonylamino)-(2 syn,3S)-2-hydroxy-4-phenyl-butyl)-N-cyclopentylmethyl-4-fluoro-benzenesulfonamide] and `C=CCOC(=O)N[C@@H](Cc1ccccc1)[C@H](O)CN(CC1CCCC1)S(=O)(=O)c1ccc(Cl)cc1` [Compound 117] are within 1.5-fold of each other in Ki: 0.35 nM for the first, 0.26 nM for the second.

First: CCOC(=O)N[C@@H](Cc1ccccc1)[C@H](O)CN(CC1CCCC1)S(=O)(=O)c1ccc(F)cc1 [Compound 115, N-Cyclopentylmethyl-N-((3-ethoxycarbonylamino)-(2 syn,3S)-2-hydroxy-4-phenyl-butyl)-4-fluoro-benzenesulfonamide]
Second: O=C(N[C@@H](Cc1ccccc1)[C@H](O)CN(CC1CCCC1)S(=O)(=O)c1ccc(Cl)cc1)O[C@H]1CCOC1 [Compound 116, 4-Chloro-N-cyclopentylmethyl-N-((2 syn,3S)-2-hydroxy-4-phenyl-3-((S)-tetrahydrofuran-3-yloxycarbonylamino)-butyl)-benzenesulfonamide]
The Ki of the first is higher: 0.5 nM for the first, under 0.1 nM for the second. The second binds more tightly here.

Going from `CC(=O)Nc1ccc(S(=O)(=O)N(CC2CCCC2)C[C@@H](O)[C@H](Cc2ccccc2)NC(=O)O[C@H]2CCOC2)cc1` [Compound 125, N-(4-(Cyclopentylmethyl-((2 syn,3S)-2-hydroxy-4-phenyl-3-((S)-tetrahydrofuran-3-yloxycarbonylamino)-butyl)-sulfamoyl)-phenyl)-acetamide] to `CC(=O)Nc1ccc(S(=O)(=O)N(CC2CCCO2)CC(O)C(Cc2ccccc2)NC(=O)OC2CCOC2)cc1` (centres unmarked) [Compound 133], the Ki rises from 0.3 nM to 24 nM (80-fold). The first binds more tightly here.

First: CN(C[C@@H](O)[C@H](Cc1ccccc1)NC(=O)OC(C)(C)C)S(=O)(=O)c1ccc(Cl)c(Cl)c1 [Compound 126]
Second: CN(C[C@@H](O)[C@H](Cc1ccccc1)NC(=O)OC(C)(C)C)S(=O)(=O)c1ccc(F)cc1 [Compound 127]
The Ki of the first is 2.1-fold lower: 310 nM for the first, 650 nM for the second.

Going from `CC(=O)Nc1ccc(S(=O)(=O)N(C)C[C@@H](O)[C@H](Cc2ccccc2)NC(=O)OC(C)(C)C)cc1` [Compound 128] to `C=C(C)CN(C[C@@H](O)[C@H](Cc1ccccc1)NC(=O)OC(C)(C)C)S(=O)(=O)c1ccc(NC(C)=O)cc1` [Compound 131], the Ki falls from over 5000 nM to 60 nM. The second binds more tightly here.

Compared with `CC(C)(C)OC(=O)NC(Cc1ccccc1)C(O)CN(CC1CCCO1)S(=O)(=O)c1ccc(F)cc1` (centres unmarked) [Compound 129], `O=C(NC(Cc1ccccc1)C(O)CN(CC1CCCO1)S(=O)(=O)c1ccc(F)cc1)OC1CCOC1` (centres unmarked) [Compound 132] is 3.2-fold lower in Ki: 19 nM for the first, 6 nM for the second.

Going from `C=C(C)CN(C[C@@H](O)[C@H](Cc1ccccc1)NC(=O)OC(C)(C)C)S(=O)(=O)c1ccc(F)cc1` [Compound 130] to `C=C(C)CN(C[C@@H](O)[C@H](Cc1ccccc1)NC(=O)O[C@H]1CCOC1)S(=O)(=O)c1ccc(F)cc1` [Compound 135], the Ki falls from 14 nM to 2.7 nM (5.2-fold). The second binds more tightly here.

`O=C(N[C@@H](Cc1ccccc1)[C@H](O)CN(Cc1ccco1)S(=O)(=O)c1ccc(F)cc1)O[C@H]1CCOC1` [Compound 136] and `CC(=O)Nc1ccc(S(=O)(=O)N(Cc2ccco2)C[C@@H](O)[C@H](Cc2ccccc2)NC(=O)O[C@H]2CCOC2)cc1` [Compound 137] are within 1.5-fold of each other in Ki: 18 nM for the first, 26 nM for the second.
